Source: patent US7872004B2, “6-(heterocyclyl-substituted benzyl)-4-oxoquinoline compound and use thereof as HIV integrase inhibitor” (Japan Tobacco Inc., priority 2006, dated 2011)

biological target: T1, HIV integrase (Human immunodeficiency virus type 1 group M subtype B, UniProt P12497, F1332H); experiment: Determination of enzyme (HIV integrase) inhibitory activity; assay type: biochemical, HIV (Human Immunodeficiency Virus (type 1)); settings: recombinant integrase protein (F185H), strand transfer plate assay, absorbance at 450 nm
T1 construct: HIV integrase full length gene; made in house; host or cells: Escherichia coli BL21(DE3)
Text: The following explains evaluation methods of the HIV integrase inhibitory activity of the compound of the present invention.
(i) Construction of Recombinant Integrase Gene Expression System
HIV integrase full length gene (J. Virol., 67, 425-437 (1993)) in which phenylalanine at codon 185 was substituted by histidine, was inserted between the restriction enzyme NdeI and XhoI sites of plasmid pET21a(+) (Novagen), whereby an integrase expression vector pET21a-IN-F185H was constructed.
(ii) Production and Purification of Integrase Protein
Escherichia coli recombinant BL21(DE3) transformed with plasmid pET21a-IN-F185H obtained in (i) was shake cultured at 30° C. in a liquid medium containing ampicillin. When the culture reached the logarithmic growth phase, isopropyl-β-D-thiogalactopyranoside was added to promote expression of integrase gene. The culture was continued for 3 hr to promote accumulation of the integrase protein. The recombinant E. coli was collected in pellets by centrifugal separation and preserved at −80° C.
The E. coli was suspended in Lysis buffer ([…] HEPES (pH 7.5), 5 mM DTT, 10 mM CHAPS, 10% glycerol) containing 1M sodium chloride and subjected to repeat pressurization and depressurization for rupture, and centrifugal separation at 4° C., 40,000×g, 60 min to recover a water-soluble fraction (supernatant). This was diluted 10-fold with Lysis buffer free of sodium chloride, mixed with SP-Sepharose (GE healthcare Bioscience) and stirred at 4° C. for 60 min to allow adsorption of integrase protein to the resin. The resin was washed with Lysis buffer containing 100 mM sodium chloride and the integrase protein was eluted with Lysis buffer containing 1M sodium chloride.
The eluted integrase protein solution was subjected to a Superdex 75 (GE healthcare Bioscience) column for gel filtration. The protein was eluted with Lysis buffer containing 1M sodium chloride.
The obtained fractions of the integrase protein were collected and preserved at −80° C.
(iii) Preparation of DNA Solution
The following DNA synthesized by Greiner or FASMAC was dissolved in TE buffer (10 mM Tris-hydrochloric acid (pH 8.0), 1 mM EDTA) and mixed with donor DNA, target DNA, and each complementary strand (+ and − strands) to 1 μM. The mixture was heated at 95° C. for 5 min, 80° C. for 10 min, 70° C. for 10 min, 60° C. for 10 min, 50° C. for 10 min and 40° C. for 10 min and kept at 25° C. to give a double stranded DNA, which was used for the test.
(iv) Determination of Enzyme (HIV Integrase) Inhibitory Activity
The donor DNA was diluted with TE buffer to 10 nM (or 5 nM), of which 50 μl was added to each well of streptavidin-coated microtiter plate (Roche) and allowed to adsorb at 37° C. for 60 min. The plate was washed with phosphate buffer (Dulbecco's PBS, Sanko Junyaku Co., Ltd.) containing 0.1% Tween 20 and phosphate buffer. Then, an enzyme reaction mixture (70 μl), a test substance (10 μl) diluted with the enzyme reaction mixture and 100 μg/ml (or 64 μg/ml (2 μM)) integrase protein (10 μl) were added to each well and reacted at 37° C. for 60 min.
Composition of the enzyme reaction mixture: 30 mM MOPS (3-morpholinopropanesulfonic acid), 5 mM magnesium chloride, 3 mM DTT (dithiothreitol), 0.1 mg/ml BSA (bovine serum albumin), 5% glycerol, 10% DMSO (dimethyl sulfoxide), 0.01% Tween 20.
Then, 50 nM (or 25 nM) target DNA (10 μl) was added, reacted at 37° C. for 10 min and washed with phosphate buffer containing 0.1% Tween 20 to stop the reaction.
Then, 100 mU/ml peroxidase labeled anti-digoxigenin antibody solution (Roche, 100 μl) was added, and the mixture was reacted at 37° C. for 60 min, followed by washing with phosphate buffer containing 0.1% Tween 20.
A peroxidase color solution (Bio Rad, 100 μl) was added and allowed to react at room temperature for 4 min (or 3 min). The color reaction was stopped by adding IN sulfuric acid (100 μl). The absorbance at 450 nm was measured. […]

SMILES | IC50 [nM]
CC(C)(C)[C@H](CO)n1cc(C(=O)O)c(=O)c2cc(Cc3cc(N4CCOCC4)c(F)c(Cl)c3F)ccc21 [Example 59, 6-[3-chloro-2,4-difluoro-5-(morpholin-4-yl)benzyl]-1-((R)-1-hydroxymethyl-2,2-dimethylpropyl)-4-oxo-1,4-dihydroquinoline-3-carboxylic acid] | 10 to 100
COc1cc2c(cc1Cc1cc(N3CCSCC3)cc(Cl)c1F)c(=O)c(C(=O)O)cn2[C@H](CO)C(C)C [Example 27, 6-[3-chloro-2-fluoro-5-(thiomorpholin-4-yl)benzyl]-1-((S)-1-hydroxymethyl-2-methylpropyl)-7-methoxy-4-oxo-1,4-dihydroquinoline-3-carboxylic acid] | < 10
CCc1cc2c(cc1Cc1cc(N3CCCC3=O)cc(Cl)c1F)c(=O)c(C(=O)O)cn2[C@H](CO)C(C)(C)C [Example 52, 6-[3-chloro-2-fluoro-5-(2-oxopyrrolidin-1-yl)benzyl]-7-ethyl-1-((S)-1-hydroxymethyl-2,2-dimethylpropyl)-4-oxo-1,4-dihydroquinoline-3-carboxylic acid] | 10 to 100
COc1cc2c(cc1Cc1cc(N3CCCC3=O)cc(Cl)c1F)c(=O)c(C(=O)O)cn2[C@H](CO)C(C)(C)C [Example 45, 6-[3-chloro-2-fluoro-5-(2-oxopyrrolidin-1-yl)benzyl]-1-((S)-1-hydroxymethyl-2,2-dimethylpropyl)-7-methoxy-4-oxo-1,4-dihydroquinoline-3-carboxylic acid] | < 10
CCO[C@H](C)[C@@H](CO)n1cc(C(=O)O)c(=O)c2cc(Cc3cc(N4CCCC4=O)cc(Cl)c3F)c(CC)cc21 [Example 40, 6-[3-chloro-2-fluoro-5-(2-oxopyrrolidin-1-yl)benzyl]-1-[(1R,2R)-2-ethoxy-1-(hydroxymethyl)propyl]-7-ethyl-4-oxo-1,4-dihydroquinoline-3-carboxylic acid] | 10 to 100
COC[C@@H](CO)n1cc(C(=O)O)c(=O)c2cc(Cc3cc(N4CCOCC4)cc(Cl)c3F)c(OC)cc21 [Example 22, 6-[3-chloro-2-fluoro-5-(morpholin-4-yl)benzyl]-1-[(R)-2-hydroxy-1-(methoxymethyl)ethyl]-7-methoxy-4-oxo-1,4-dihydroquinoline-3-carboxylic acid] | < 10
COc1cc2c(cc1Cc1cc(N3CCCCC3)cc(Cl)c1F)c(=O)c(C(=O)O)cn2[C@H](CO)C(C)C [Example 6, 6-[3-chloro-2-fluoro-5-(piperidin-1-yl)benzyl]-1-((S)-1-hydroxymethyl-2-methylpropyl)-7-methoxy-4-oxo-1,4-dihydroquinoline-3-carboxylic acid] | < 10
COc1cc2c(cc1Cc1cc(N3CCCS3(=O)=O)cc(Cl)c1F)c(=O)c(C(=O)O)cn2[C@H](CO)C(C)C [Example 21, 6-[3-chloro-5-(1,1-dioxoisothiazolidin-2-yl)-2-fluorobenzyl]-1-((S)-1-hydroxymethyl-2-methylpropyl)-7-methoxy-4-oxo-1,4-dihydroquinoline-3-carboxylic acid] | < 10
COc1cc2c(cc1Cc1cc(-c3nccs3)cc(Cl)c1F)c(=O)c(C(=O)O)cn2[C@H](CO)C(C)C [Example 37, 6-[3-chloro-2-fluoro-5-(thiazol-2-yl)benzyl]-1-((S)-1-hydroxymethyl-2-methylpropyl)-7-methoxy-4-oxo-1,4-dihydroquinoline-3-carboxylic acid] | 10 to 100
COc1cc2c(cc1Cc1cc(N3CCN(C(C)=O)CC3)cc(Cl)c1F)c(=O)c(C(=O)O)cn2[C@H](CO)C(C)C [Example 11, 6-[5-(4-acetylpiperazin-1-yl)-3-chloro-2-fluorobenzyl]-1-((S)-1-hydroxymethyl-2-methylpropyl)-7-methoxy-4-oxo-1,4-dihydroquinoline-3-carboxylic acid] | < 10
COc1cc2c(cc1Cc1cc(N3CC[C@H](F)C3)cc(Cl)c1F)c(=O)c(C(=O)O)cn2[C@H](CO)C(C)C [Example 14, 6-[3-chloro-2-fluoro-5-((S)-3-fluoropyrrolidin-1-yl)benzyl]-1-((S)-1-hydroxymethyl-2-methylpropyl)-7-methoxy-4-oxo-1,4-dihydroquinoline-3-carboxylic acid] | < 10
